Measurements as given in patent publication US20260217673A1, “NOVEL COMPOUND AS RON INHIBITOR” (LG CHEM, LTD., priority 2022, published 2026).

Tests used:
RON = RON (Homo sapiens, UniProt Q04912); assay: RON inhibitory activity, TR-FRET kinase assay; assay type: biochemical; conditions: RON protein, ULight-labeled Poly GT substrate
Procedure: To measure the RON inhibitory activity of the example compounds, the IC50 of the compounds was measured using time-resolved fluorescence energy transfer (TR-FRET).
Specifically, the compound was prepared at a concentration of 1 mM with 100% DMSO and serially diluted 10 times through 3-fold dilution. 2 μl of the serially diluted compound was added to a 96-well plate containing 48 μl of 1× kinase reaction buffer (50 mM HEPES (pH 7.4), 0.01% Tween-20, 5 mM DTT, 0.5 mM Na3VO4, 2 mM EGTA, 10 mM MgCl2).
The RON protein was diluted with a RON storage buffer (50 mM Tris-HCl (pH 7.5), 150 mM NaCl, 0.5 mM EDTA, 0.02% Triton X-100) to a concentration of 49.3 nM, and then diluted again with 1× kinase reaction buffer to be 0.4 nM. As a substrate cocktail, a RON-specific substrate mixture (40 μM ULight-labeled Poly GT, 100 nM ATP) was prepared at a concentration twice the final reaction concentration.
(§1) After that, a 384-well plate was prepared, and 2.5 μl of the diluted example compound was added to each of the experimental group wells, and 2.5 μl of a 4% DMSO solution was dispensed into high control wells and low control wells.
(§2) Afterward, 2.5 μl of 0.4 nM RON was dispensed into the high control wells and the experimental group wells, and 2.5 μl of 1× kinase reaction buffer was added to the low control wells, and after centrifugation at 1000 RPM for 40 seconds at room temperature, the mixtures were incubated at room temperature for 20 to 30 minutes. Then, 5 μl of the substrate cocktail (2×) was dispensed into all wells, and after centrifugation at 1000 RPM for 40 seconds at room temperature, the mixtures were incubated at room temperature for 60 minutes. Afterward, 5 μl of 30 mM EDTA was added to all wells to terminate the reaction, and the mixtures were incubated again at room temperature for 5 minutes. Thereafter, 5 μl of 4× phosphotyrosine antibodies (Perkin Elmer) containing europium was added to all wells and incubated at room temperature for 60 minutes. After the incubation, the 384-well-plate was read with a Vison plate reader. At this time, the excitation wavelength was 340 nm, and the emission wavelengths were 620 nm and 665 nm. The IC50 value of each example compound was derived using the GraphPd Prism7 program.

cMET = cMET (Homo sapiens, UniProt P08581); assay: MET (cMET) enzyme inhibitory activity, TR-FRET kinase assay; assay type: biochemical; conditions: cMET protein, TK peptide substrate
Sequence of cMET (P08581 25-1390): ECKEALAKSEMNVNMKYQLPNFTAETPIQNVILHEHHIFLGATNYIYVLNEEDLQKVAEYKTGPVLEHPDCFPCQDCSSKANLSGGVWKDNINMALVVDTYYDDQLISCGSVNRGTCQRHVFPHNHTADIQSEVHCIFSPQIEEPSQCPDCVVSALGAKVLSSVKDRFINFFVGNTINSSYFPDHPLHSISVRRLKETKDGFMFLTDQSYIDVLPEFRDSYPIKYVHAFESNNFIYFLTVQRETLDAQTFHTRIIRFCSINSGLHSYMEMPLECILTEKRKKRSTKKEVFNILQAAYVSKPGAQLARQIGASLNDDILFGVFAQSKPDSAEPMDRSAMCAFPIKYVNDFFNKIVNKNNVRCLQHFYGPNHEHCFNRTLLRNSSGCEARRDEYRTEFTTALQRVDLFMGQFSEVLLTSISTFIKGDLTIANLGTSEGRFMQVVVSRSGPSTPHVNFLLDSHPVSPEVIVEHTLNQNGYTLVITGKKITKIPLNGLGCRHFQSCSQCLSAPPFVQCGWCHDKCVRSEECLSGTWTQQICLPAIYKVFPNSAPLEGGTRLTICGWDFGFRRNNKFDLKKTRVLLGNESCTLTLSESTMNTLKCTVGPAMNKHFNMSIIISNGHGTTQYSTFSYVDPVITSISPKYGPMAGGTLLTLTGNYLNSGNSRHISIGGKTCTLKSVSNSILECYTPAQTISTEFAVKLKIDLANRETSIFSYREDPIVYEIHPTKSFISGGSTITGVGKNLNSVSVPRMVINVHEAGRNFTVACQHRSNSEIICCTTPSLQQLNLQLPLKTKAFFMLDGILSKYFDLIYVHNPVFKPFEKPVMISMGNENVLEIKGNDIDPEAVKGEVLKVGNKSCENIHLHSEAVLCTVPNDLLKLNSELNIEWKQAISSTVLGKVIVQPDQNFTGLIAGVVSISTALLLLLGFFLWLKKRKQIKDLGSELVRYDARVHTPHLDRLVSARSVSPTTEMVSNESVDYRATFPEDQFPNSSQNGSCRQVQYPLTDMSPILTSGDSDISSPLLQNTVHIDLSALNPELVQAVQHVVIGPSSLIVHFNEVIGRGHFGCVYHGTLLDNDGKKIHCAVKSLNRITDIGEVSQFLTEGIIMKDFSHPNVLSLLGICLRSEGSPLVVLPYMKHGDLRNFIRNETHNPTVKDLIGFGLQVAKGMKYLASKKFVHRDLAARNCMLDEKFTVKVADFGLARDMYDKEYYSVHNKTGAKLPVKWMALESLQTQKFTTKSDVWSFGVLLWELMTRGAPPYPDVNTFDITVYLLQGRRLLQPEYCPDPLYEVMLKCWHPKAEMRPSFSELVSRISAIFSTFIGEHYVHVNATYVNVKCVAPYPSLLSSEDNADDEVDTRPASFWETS
Procedure: In addition, to measure cMET enzyme activity inhibition, an experiment was performed by the same method as the experiment for measuring the RON enzyme activity inhibition.
Specifically, the compound was prepared at a concentration of 1 mM with 100% DMSO and serially diluted 10 times through 3-fold dilution. 2 μl of the serially diluted compound was added to a 96-well plate containing 48 μl 1× kinase reaction buffer (50 mM HEPES (pH 7.4), 0.05% BSA, 0.005% Tween-20, 1 mM DTT, 0.5 mM MnCl2, 20 mM MgCl2).
The cMET protein was diluted in a cMET storage buffer (50 mM Tris-HCl (pH 7.5), 150 mM NaCl, 0.05% Brij35, 1 mM DTT, 10% glycerol) to a concentration of 263 nM, and then diluted again with 1× kinase reaction buffer to 2 nM. As a substrate cocktail, a MET-specific substrate mixture (5 μM TK peptide, 10 mM ATP) was prepared at a concentration twice the final reaction concentration.
as §1
as §2, with “μl of 2 nM cMET” for “μl of 0.4 nM RON”, “2 nM cMET was dispensed” for “0.4 nM RON was dispensed”, “was dispensed to the high” for “was dispensed into the high”, “μl of 90 mM EDTA” for “μl of 30 mM EDTA”

Sequence of RON (Q04912 25-1400, species assumed): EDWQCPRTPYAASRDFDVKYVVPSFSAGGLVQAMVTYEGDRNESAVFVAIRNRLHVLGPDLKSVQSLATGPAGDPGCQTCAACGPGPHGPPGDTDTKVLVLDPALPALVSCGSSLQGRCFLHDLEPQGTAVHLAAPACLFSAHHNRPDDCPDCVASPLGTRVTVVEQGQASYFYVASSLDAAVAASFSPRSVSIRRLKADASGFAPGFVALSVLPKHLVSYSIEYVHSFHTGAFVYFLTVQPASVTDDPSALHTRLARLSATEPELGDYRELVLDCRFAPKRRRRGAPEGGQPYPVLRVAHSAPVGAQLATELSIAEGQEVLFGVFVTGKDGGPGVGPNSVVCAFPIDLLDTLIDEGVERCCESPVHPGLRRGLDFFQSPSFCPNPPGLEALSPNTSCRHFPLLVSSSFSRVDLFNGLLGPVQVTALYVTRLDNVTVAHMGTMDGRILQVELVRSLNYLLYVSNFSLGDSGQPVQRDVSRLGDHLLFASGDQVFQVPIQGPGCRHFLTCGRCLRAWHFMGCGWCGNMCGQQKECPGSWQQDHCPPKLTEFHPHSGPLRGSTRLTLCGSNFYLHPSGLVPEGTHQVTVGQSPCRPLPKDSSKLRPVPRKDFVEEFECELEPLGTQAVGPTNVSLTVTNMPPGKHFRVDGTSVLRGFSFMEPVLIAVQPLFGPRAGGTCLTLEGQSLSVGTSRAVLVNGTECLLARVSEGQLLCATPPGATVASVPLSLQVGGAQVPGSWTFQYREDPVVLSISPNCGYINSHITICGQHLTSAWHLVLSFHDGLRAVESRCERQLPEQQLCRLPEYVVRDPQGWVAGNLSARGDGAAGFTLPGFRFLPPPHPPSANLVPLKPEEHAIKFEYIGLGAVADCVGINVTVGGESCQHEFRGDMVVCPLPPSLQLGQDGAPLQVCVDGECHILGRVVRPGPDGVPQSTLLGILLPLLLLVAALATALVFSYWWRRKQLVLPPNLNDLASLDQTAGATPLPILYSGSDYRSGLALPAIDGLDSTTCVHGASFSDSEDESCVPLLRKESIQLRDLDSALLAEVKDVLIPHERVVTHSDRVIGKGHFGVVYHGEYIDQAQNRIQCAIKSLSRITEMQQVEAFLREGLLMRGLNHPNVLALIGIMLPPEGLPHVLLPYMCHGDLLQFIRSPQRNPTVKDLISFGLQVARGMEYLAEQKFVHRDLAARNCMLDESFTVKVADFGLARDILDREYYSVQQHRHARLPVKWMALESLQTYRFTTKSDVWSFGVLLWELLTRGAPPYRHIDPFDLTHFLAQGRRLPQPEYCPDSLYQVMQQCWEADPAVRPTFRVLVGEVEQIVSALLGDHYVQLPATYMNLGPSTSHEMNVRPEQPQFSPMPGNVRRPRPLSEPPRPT

IC50 (RON)	IC50 (cMET)	SMILES
50 to 500 nM	> 5 µM	Nc1nccc(Oc2cc(F)c(NC(=O)c3cnn(-c4ccccc4)c3C(F)(F)F)cc2F)c1Cl [Example 6, N-(4-((2-amino-3-chloropyridin-4-yl)oxy)-2,5-difluorophenyl)-1-phenyl-5-(trifluoromethyl)-1H-pyrazole-4-carboxamide]
50 to 500 nM	> 5 µM	Nc1nccc(Oc2cc(F)c(NC(=O)c3cnn(-c4ncccc4F)c3C(F)(F)F)c(F)c2)c1Cl [Example 7, N-(4-((2-amino-3-chloropyridin-4-yl)oxy)-2,6-difluorophenyl)-1-(3-fluoropyridin-2-yl)-5-(trifluoromethyl)-1H-pyrazole-4-carboxamide]
500 to 5000 nM	> 5 µM	Nc1nccc(Oc2cc(F)c(NC(=O)c3cnn(-c4ccccc4)c3C(F)(F)F)c(F)c2)c1Cl [Example 8, N-(4-((2-amino-3-chloropyridin-4-yl)oxy)-2,6-difluorophenyl)-1-phenyl-5-(trifluoromethyl)-1H-pyrazole-4-carboxamide]
< 50 nM	> 5 µM	Nc1ncnc(Oc2c(F)cc(NC(=O)c3cnn(-c4ccccc4)c3C(F)(F)F)cc2F)c1Cl [Example 9, N-(4-((6-amino-5-chloropyrimidin-4-yl)oxy)-3,5-difluorophenyl)-1-phenyl-5-(trifluoromethyl)-1H-pyrazole-4-carboxamide]
< 50 nM	0.5 to 5 µM	Nc1ncnc(Oc2c(F)cc(NC(=O)c3cnn(-c4ncccc4F)c3C(F)(F)F)cc2F)c1Cl [Example 10, N-(4-((6-amino-5-chloropyrimidin-4-yl)oxy)-3,5-difluorophenyl)-1-(3-fluoropyridin-2-yl)-5-(trifluoromethyl)-1H-pyrazole-4-carboxamide]
< 50 nM	0.5 to 5 µM	Nc1ncnc(Oc2c(F)cc(NC(=O)c3cnn(-c4ncccc4Cl)c3C(F)(F)F)cc2F)c1Cl [Example 11, N-(4-((6-amino-5-chloropyrimidin-4-yl)oxy)-3,5-difluorophenyl)-1-(3-chloropyridin-2-yl)-5-(trifluoromethyl)-1H-pyrazole-4-carboxamide]

More lines, now with the values behind:

SMILES	IC50 (RON)	IC50 (cMET)
Nc1nccc(Oc2c(F)cc(NC(=O)c3cnn(-c4ccccc4)c3C(F)(F)F)cc2F)c1Cl [Example 1, N-(4-((2-amino-3-chloropyridin-4-yl)oxy)-3,5-difluorophenyl)-1-phenyl-5-(trifluoromethyl)-1H-pyrazole-4-carboxamide]	< 50 nM	> 5 µM
Nc1nccc(Oc2c(F)cc(NC(=O)c3cnn(-c4ncccn4)c3C(F)(F)F)cc2F)c1Cl [Example 2, N-(4-((2-amino-3-chloropyridin-4-yl)oxy)-3,5-difluorophenyl)-1-(pyrimidin-2-yl)-5-(trifluoromethyl)-1H-pyrazole-4-carboxamide]	< 50 nM	0.5 to 5 µM
Nc1nccc(Oc2c(F)cc(NC(=O)c3cnn(-c4cccnn4)c3C(F)(F)F)cc2F)c1Cl [Example 3, N-(4-((2-amino-3-chloropyridin-4-yl)oxy)-3,5-difluorophenyl)-1-(pyridazin-3-yl)-5-(trifluoromethyl)-1H-pyrazole-4-carboxamide]	< 50 nM	0.5 to 5 µM
CCc1c(C(=O)Nc2cc(F)c(Oc3ccnc(N)c3Cl)c(F)c2)cnn1-c1ncccc1F [Example 4, N-(4-((2-amino-3-chloropyridin-4-yl)oxy)-3,5-difluorophenyl)-5-ethyl-1-(3-fluoropyridin-2-yl)-1H-pyrazole-4-carboxamide]	< 50 nM	> 5 µM
Nc1nccc(Oc2cc(F)c(NC(=O)c3cnn(-c4ncccc4F)c3C(F)(F)F)cc2F)c1Cl [Example 5, N-(4-((2-amino-3-chloropyridin-4-yl)oxy)-2,5-difluorophenyl)-1-(3-fluoropyridin-2-yl)-5-(trifluoromethyl)-1H-pyrazole-4-carboxamide]	< 50 nM	> 5 µM
